Results from patent US9062048B2, “Cyclohexyl-azetidinyl antagonists of CCR2” (Janssen Pharmaceutica NV, priority 2010, dated 2015).

Biological target: CCR2 (Homo sapiens (Human), UniProt P41597)
Experiment: MCP-1 Receptor Binding Assay in THP-1 Cells;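 further: THP-1 is a human monocytic cell line, and nonspecific binding was defined with 1 µM unlabeled MCP-1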
Settings: 0.5 nM 125I labeled MCP-1, 2 hours at 30° C., read-out: Inhibition of MCP-1 Binding IC50 MCP1B

CCR2, sequence (P41597 whole entry): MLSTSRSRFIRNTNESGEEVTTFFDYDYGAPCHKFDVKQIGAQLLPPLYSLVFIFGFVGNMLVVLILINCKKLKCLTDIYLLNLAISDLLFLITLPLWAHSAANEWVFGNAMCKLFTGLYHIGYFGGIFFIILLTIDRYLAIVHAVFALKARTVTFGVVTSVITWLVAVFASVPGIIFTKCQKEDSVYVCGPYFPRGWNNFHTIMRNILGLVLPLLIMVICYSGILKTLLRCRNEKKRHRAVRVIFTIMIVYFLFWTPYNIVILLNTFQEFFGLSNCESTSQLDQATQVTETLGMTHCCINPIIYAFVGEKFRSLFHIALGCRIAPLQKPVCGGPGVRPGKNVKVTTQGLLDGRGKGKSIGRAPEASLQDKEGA

Which IC50 does the source give for `[2H][C@]1(N2CC(NC(=O)CNc3ncnc4ccc(C(F)(F)F)cc34)C2)CC[C@@H](C(O)C2CC2)CC1` (stereo partly drawn) [Example 5, N-(1-((1S,4s)-4-(cyclopropyl(hydroxy)methyl)1-deuterocyclohexyl)azetidin-3-yl)-2-((6-(trifluoromethyl)quinazolin-4-yl)amino)acetamide] here?
The IC50 was 14 nM.

`O=C(CNc1ncnc2ccc(C(F)(F)F)cc12)NC1CN([C@H]2CC[C@@H](c3ccccc3CO)CC2)C1` [Example 73, N-(1-((1s,4s)-4-(2-(hydroxymethyl)phenyl)cyclohexyl)azetidin-3-yl)-2-((6-(trifluoromethyl)quinazolin-4-yl)amino)acetamide] was tested. Which IC50 did it give?
Its IC50 is 55 nM.

How did the IC50 turn out when `O=C(CNc1ncnc2ccc(C(F)(F)F)cc12)N[C@H]1C[C@@H](N2CCC(O)(c3cncs3)CC2)C1` [Example 161, N-((1s,3s)-3-(4-hydroxy-4-(thiazol-5-yl)piperidin-1-yl)cyclobutyl)-2-((6-(trifluoromethyl)quinazolin-4-yl)amino)acetamide] was run?
The IC50 was greater than 25000 nM.

For `CON(C)C(=O)C1CCC(N2CC(NC(=O)CNc3ncnc4ccc(C(F)(F)F)cc34)C2)CC1` (centres unmarked) [Example 126], which IC50 is on record?
Its IC50 is 91 nM.

With `CCC([C@H]1CC[C@@H](N2CC(NC(=O)CNc3ncnc4ccc(C(F)(F)F)cc34)C2)CC1)N(C)C` (stereo partly drawn) [Example 137, N-(1-((1S,4s)-4-((R)-1-(dimethylamino)propyl)cyclohexyl)azetidin-3-yl)-2-(6-(trifluoromethyl)quinazolin-4-ylamino)acetamide] as the compound, how does the IC50 read?
The IC50 was 5040 nM.

Which IC50 does the source give for `CC(C)[C@H](O)[C@H]1CC[C@H](N2CC(NC(=O)CNc3nncc4ccc(C(F)(F)F)cc34)C2)CC1` (racemic) [Example 160, N-(1-((1S,4r)-4-((S)-1-hydroxy-2-methylpropyl)cyclohexyl)azetidin-3-yl)-2-((7-(trifluoromethyl)phthalazin-1-yl)amino)acetamide] here?
Its IC50 is 22 nM.

With `O=C(CNc1ncnc2ccc(C(F)(F)F)cc12)NC1CN([C@H]2CC[C@@H](C3CCCO3)CC2)C1` (some centres unmarked) [Example 15] as the compound, how does the IC50 read?
Its IC50 is 49 nM.

For `CCC(O)[C@H]1CC[C@@H](N2CC(NC(=O)CNc3cc(C(F)(F)F)nc4ccc(C(F)(F)F)cc34)C2)CC1` (some centres unmarked) [Example 25, 2-((2,6-bis(trifluoromethyl)quinolin-4-yl)amino)-N-(1((-1R,4s)-4-(1-hydroxypropyl)cyclohexyl)azetidin-3-yl)acetamide], which IC50 is on record?
Its IC50 is 99 nM.

With `CCOC(=O)[C@H]1CC[C@@H](N2CC(NC(=O)CNc3ncnc4ccc(C(F)(F)F)cc34)C2)CC1` [Example 106, (1s,4s)-ethyl 4-(3-(2-((6-(trifluoromethyl)quinazolin-4-yl)amino)acetamido)azetidin-1-yl)cyclohexanecarboxylate] as the compound, how does the IC50 read?
The IC50 was 13 nM.

`CC(O)[C@H]1CC[C@@H](N2CC(NC(=O)CNc3ncnc4ccc(C(F)(F)F)cc34)C2)CC1` (stereo partly drawn) [Example 97, N-(1-((1S,4s)-4-(1-hydroxyethyl)cyclohexyl)azetidin-3-yl)-2-((6-(trifluoromethyl)quinazolin-4-yl)amino)acetamide] was tested. Which IC50 did it give?
Its IC50 is 89 nM.

`CCC(NS(C)(=O)=O)[C@H]1CC[C@@H](N2CC(NC(=O)CNc3ncnc4ccc(C(F)(F)F)cc34)C2)CC1` (stereo partly drawn) [Example 139, N-(1-((1R,4s)-4-((S)-1-(methylsulfonamido)propyl)cyclohexyl)azetidin-3-yl)-2-((6-(trifluoromethyl)quinazolin-4-yl)amino)acetamide] was tested. Which IC50 did it give?
The IC50 was 1450 nM.

How did the IC50 turn out when `CC(=O)N(C)[C@H]1CC[C@@H](N2CC(NC(=O)CNc3ncnc4ccc(C(F)(F)F)cc34)C2)CC1` [Example 44] was run?
The IC50 was 520 nM.

For `O=C(CNc1ncnc2ccc(C(F)(F)F)cc12)NC1CN([C@H]2CC[C@@H]([C@@H](O)C3CC3)CC2)C1` [(+) 4, N-(1-((1S,4s)-4-(cyclopropyl(hydroxy)methyl)cyclohexyl)azetidin-3-yl)-2-((6-(trifluoromethyl)quinazolin-4-yl)amino)acetamide], which IC50 is on record?
The IC50 was 24 nM.

Which IC50 does the source give for `CCC(NS(=O)(=O)C(F)(F)F)[C@H]1CC[C@@H](N2CC(NC(=O)CNc3ncnc4ccc(C(F)(F)F)cc34)C2)CC1` (stereo partly drawn) [Example 140, 2-((6-(trifluoromethyl)quinazolin-4-yl)amino)-N-(1-((1R,4s)-4-((S)-1-(trifluoromethylsulfonamido)propyl)cyclohexyl)azetidin-3-yl)acetamide] here?
The IC50 was 3000 nM.

Which IC50 does the source give for `O=C(CNc1ncnc2ccc(C(F)(F)F)cc12)N[C@H]1C[C@H](N2CCC(O)(c3cncs3)CC2)C1` [Example 162, N-((1r,3R)-3-(4-hydroxy-4-(thiazol-5-yl)piperidin-1-yl)cyclobutyl)-2-((6-(trifluoromethyl)quinazolin-4-yl)amino)acetamide] here?
The IC50 was 1220 nM.

Which IC50 does the source give for `O=C(CNc1cc(C(F)(F)F)nc2ccc(C(F)(F)F)cc12)NC1CN([C@H]2CC[C@@H](n3ccccc3=O)CC2)C1` [Example 59, 2-((2,6-bis(trifluoromethyl)quinolin-4-yl)amino)-N-(1-((1s,4s)-4-(2-oxopyridin-1(2H)-yl)cyclohexyl)azetidin-3-yl)acetamide] here?
The IC50 was 130 nM.

With `O=C(CNc1ncnc2ccc(C(F)(F)F)cc12)NC1CN([C@H]2CC[C@@H](C(O)C(F)(F)C(F)(F)C(F)(F)F)CC2)C1` (stereo partly drawn) [Example 35, N-(1-((1R,4s)-4-(2,2,3,3,4,4,4-heptafluoro-1-hydroxybutyl)cyclohexyl)azetidin-3-yl)-2-((6-(trifluoromethyl)quinazolin-4-yl)amino)acetamide] as the compound, how does the IC50 read?
The IC50 was 270 nM.

Which IC50 does the source give for `O=C(CNc1ncnc2ccc(C(F)(F)F)cc12)NC1CN([C@H]2CC[C@@H](C3CNC(=O)O3)CC2)C1` (stereo partly drawn) [Example 22, N-(1-((1S,4s)-4-(2-oxooxazolidin-5-yl)cyclohexyl)azetidin-3-yl)-2-((6-(trifluoromethyl)quinazolin-4-yl)amino)acetamide] here?
Its IC50 is 64 nM.

How did the IC50 turn out when `CSCC(O)[C@H]1CC[C@@H](N2CC(NC(=O)CNc3ncnc4ccc(C(F)(F)F)cc34)C2)CC1` (stereo partly drawn) [Example 18, N-(1-((1S,4s)-4-(1-hydroxy-2-(methylthio)ethyl)cyclohexyl)azetidin-3-yl)-2-((6-(trifluoromethyl)quinazolin-4-yl)amino)acetamide] was run?
Its IC50 is 10 nM.

`O=C(CNc1ncnc2ccc(C(F)(F)F)cc12)NC1CN([C@H]2CC[C@@H](C(O)c3cncs3)CC2)C1` (stereo partly drawn) [Example 99, N-(1-((1R,4s)-4-(hydroxy(thiazol-5-yl)methyl)cyclohexyl)azetidin-3-yl)-2-((6-(trifluoromethyl)quinazolin-4-yl)amino)acetamide] was tested. Which IC50 did it give?
Its IC50 is 19 nM.

How did the IC50 turn out when `O=C1C=CCC([C@H]2CC[C@@H](N3CC(NC(=O)CNc4ncnc5ccc(C(F)(F)F)cc45)C3)CC2)N1` (stereo partly drawn) [Example 11, N-(1-((1S,4s)-4-(6-oxo-1,2,3,6-tetrahydropyridin-2-yl)cyclohexyl)azetidin-3-yl)-2-((6-(trifluoromethyl)quinazolin-4-yl)amino)acetamide] was run?
The IC50 was 12 nM.

How did the IC50 turn out when `CC(C)C(=O)NC[C@H]1CC[C@@H](N2CC(NC(=O)CNc3ncnc4ccc(C(F)(F)F)cc34)C2)CC1` [Example 114] was run?
Its IC50 is 280 nM.

With `Cc1ccc([C@]2(O)CC[C@H](N3CC(NC(=O)CNc4ncnc5ccc(C(F)(F)F)cc45)C3)CC2)cn1` [Example 75, N-(1-((1r,4r)-4-hydroxy-4-(6-methylpyridin-3-yl)cyclohexyl)azetidin-3-yl)-2-((6-(trifluoromethyl)quinazolin-4-yl)amino)acetamide] as the compound, how does the IC50 read?
The IC50 was 11 nM.
